Measurements published in patent US20100167265A1, “VACCINE AGAINST INFECTIOUS AGENTS HAVING AN INT[…], COMPOSITION FOR THE TREATMENT AND PREVENTION OF HIV INFECTIONS, ANTIBODIES AND METHOD OF DIAGNOSIS” (INSTITUT NATIONAL de la SANTE ET DE LA RECHERCHE MEDICALE …, priority 1995, published 2010).

The substances below were run against T1, R7V (Homo sapiens, UniProt P61769) (assay: Immune response of rabbits immunized with peptide-KLH, serum ELISA on peptide). Settings: not given.
T1 construct: The peptide R7V (RTPKIQV) was extended by 2 amino acids in order to allow the coupling
Assay type: in vivo, rabbit
Experimental: The peptide antigen 7AA is coupled to KLH (Keyhole Limpet Hemocyanin) and injected into rabbits in the presence of complete Freund's adjuvant.
The animals are immunized in the presence of complete Freund's adjuvant at D0, D14, D28, D42 and trial bleedings are carried out before immunization on days 35, 49, 56 and 70.
The peptides used are: RV7-KLH, S7K-KLH and F7E-KLH
The peptide R7V (RTPKIQV) was extended by 2 amino acids in order to allow the coupling. The structure used as immunogen is […].
The antibodies of the rabbits immunized 618 were measured by ELISA, where the peptide coupled to various carrier proteins was used at the bottom of the well (either coupled to KLH, to BSA (Bovine Serum Albumin) or MAP (Multiple Antigenic Peptide)).
The diagrams represent the results obtained at 2 dilutions d100 and d1000, that is to say a 1/100 and 1/1000 dilution of the sera, or at different times. […]
→(Ag)final=1 μg/ml • distribute 100 μl/well, that is to 100 ng/well • incubate 2 h at 37° C. or overnight at 4° C. […] (in a humid atmosphere). • 8) Washes (identical to point 2) • 9) Visualization with OPD • dissolve 10 mg OPD in 25 ml of phosphocitrate buffer (0.1 M, pH 5.5) • add at the last moment 10 μl H2O2 • distribute 100 μl/well and incubate 30 min in the dark at room temperature (may be read at 405 nm) • stop the reaction with 50 μl H2SO4 12.5 k. • 10) Reading at 492 nm.
With RTPKIQV [R7V] the immune response generated was “good immune response”.

Each substance was assayed on B1G6 monoclonal antibody (assay: Effect of selected peptides on the neutralization of HIV-1 NDK by B1G6 monoclonal antibody on PBLs). Settings: peptide 100 or 50 μg/ml; B1G6 5 μg/ml.
Assay type: cell-based
Experimental: The peptides at a concentration of 100 μg/ml or 50 μg/ml (40 μl or 20 μl of the stock solution and 5 mg/ml) are preincubated with 5 μg/ml of B1G6 (10 μl of a stock solution at 1 mg/ml) in a total volume of 110 μl for 2 hours, in tubes on a water bath at 37° C., with gentle stirring. Next, HIV-1 NDK is added (100 μl of a 2×10^−4 dilution of a stock solution and the tubes are incubated for 1 hour at 37° C. on a water bath. The tubes are then separated into two and each 100 μl is added to 10^6 PBLs on a 24-well plate. The cells are cultured for 3 days at 37° C. under an atmosphere with 5% CO2. On day 3, the cells are washed, placed in culture and propagated for at least 20-25 days in a 25 cm^3 round-bottomed flask. The production of virus is monitored every 3 or 4 days by the assay of reverse transcriptase (RT).
For FHPSDIE [F7E], the “canceling of the neutralizing effect of B1G6 on the production of HIV-1 NDK by the PBLs” value (“canceling” below) was “can cancel the neutralizing effect”.
IQRTPNIVKW [compound 190] was tested, and the “canceling” value was “lost the canceling effect”.
In the case of IQRTPQIVKW [compound 189], the “canceling” value is reported as “lost the canceling effect”.
RTPKIQV [R7V] was tested, and the “canceling” value was “can cancel the neutralizing effect”.
In the case of TLSRTPKIQV [compound 185], the “canceling” value is reported as “lost the canceling effect”.
